The text below walks through data of patent publication US20220125983A1, “MALODOR COUNTERACTING COMPOSITION AND AGENT AND THE USE THEREOF” (CHEMCOM S.A., priority 2019, published 2022).

The test system of experiment [1] is perception of the earthy olfactory note. Nature of the experiment: Sensory test: expert panel rating of odor intensity of earthy compounds without and with nefopam (Tedlar bags). Particulars: for Odor intensity without Nefopam, note A: earthy: scale 0 (no odor) to 5 (saturating odor), resolution 0.5, panel of five assessors; for Odor intensity of Geosmin with nefopam enantiomer as blocker, note A: earthy / Odor intensity of Geosmin with nefopam enantiomer as blocker, note B: camphoreous: Geosmin + enantiomer free base. Format: in vivo, human. Here is the method:
The composition comprising nefopam was prepared by diluting racemic nefopam in its free base form in ethanol at a concentration of 107 mg/ml The test comprised in a first step, microinjecting the earthy compound, nefopam or earthy compound+nefopam in 20 L TedlarTM bags specially conceived for gas sampling, previously loaded with a known volume of pure air (from oil free compressor with additional charcoal filters). The earthy compounds were solubilized in ethanol at a suitable concentration (see table 2) and injected in the 20 L […] bag. The final concentration in the bag varied between 7 mg/m^3' to 383 mg/m^3, (table 2), depending on the odor strength of the compound while the concentration of nefopam in the bags was fixed at 54 mg/m^3. [table] The odor presentation device comprised a cylinder filled with clean air. The bag was inserted in the cylinder and connected to a sampling installation in the cylinder by means of a valve. By controlled injection of clean air into the cylinder, the interior pressure was raised and the sampling air was pressed in a controlled manner out of the sample container through the opened valve. This sampling air was transferred to the nose of the corresponding sensory odor panel member by means of a funnel. By this means, each sensory odor panel member received an identical sample with a standardized volume flow and a constant provision time. The outlet flow rate was between 10-20 L/min (in order to avoid any mixing with ambient air before reaching the nose). The expert panel of five assessors entered the room 15 minutes before starting the test. The basic standard test was a rating in intensity and the use of the closest chemical descriptors according to the following order of presentation: 1. earthy compound 2. Mix: earthy compound (at same concentrations as for 1)+Nefopam. Each assessor could smell for few seconds. A pause of minimum 1 minute was considered between presentations. The individual rating was done with a resolution of 0.5 on a scale ranging from 0 (no odor) to 5 (saturating odor). Both enantiomers of nefopam, (+)-nefopam and (-)-nefopam in their free base from obtained as described in examples 1 and 2, respectively, were assessed separately as blockers of the perception of the earthy note of geosmin, using the same procedure as described in example 3.

In the next experiment the test system is human nose. Particulars: as low as; cited from earlier work.
Where [2] appears, read: earthy compound alone in bag at Table 2 concentration.
[3] abbreviates: earthy compound alone in bag at Table 2 concentration, scale 0 to 5.
The mark [4] stands for this setting: Example 4, same procedure as example 3, scale 0 to 5.
Setting [5] is: 2-ethylfenchol 188 mg/m^3 + racemic nefopam free base 54 mg/m^3 in bag, scale 0 to 5.
The mark [6] stands for this setting: 2-methylisoborneol 150 mg/m^3 + racemic nefopam free base 54 mg/m^3 in bag, scale 0 to 5.
[7] abbreviates: Ambrinol R 29 mg/m^3 + racemic nefopam free base 54 mg/m^3 in bag, scale 0 to 5.
The mark [8] stands for this setting: Ambrinol S 26 mg/m^3 + racemic nefopam free base 54 mg/m^3 in bag, scale 0 to 5.
[9] abbreviates: Ambrinol racemic 25 mg/m^3 + racemic nefopam free base 54 mg/m^3 in bag, scale 0 to 5.
Setting [10] is: Geosmin 19 mg/m^3 + racemic nefopam free base 54 mg/m^3 in bag, scale 0 to 5.
The mark [11] stands for this setting: Huminol 11 mg/m^3 + racemic nefopam free base 54 mg/m^3 in bag, scale 0 to 5.
The mark [12] stands for this setting: Methyl geosmin 7 mg/m^3 + racemic nefopam free base 54 mg/m^3 in bag, scale 0 to 5.
Where [13] appears, read: Patchouli oil 383 mg/m^3 + racemic nefopam free base 54 mg/m^3 in bag, scale 0 to 5.
The mark [14] stands for this setting: earthy compounds of Table 3, nefopam 54 mg/m^3.
Setting [15] is: Example 4, Geosmin alone, same procedure as example 3, scale 0 to 5.

For `CC1(C)CCC=C2C[C@@](C)(O)CC[C@H]21` [Ambrinol R, (2S, 4aS)-(−)-2,5,5-Trimethyl-1,2,3,4,4a,5,6,7-octahydro-naphthalen-2-ol], in experiment [1] (setting [2]), the “Odor intensity without Nefopam, note A: earthy” value is 1. Moreover, in experiment [1] (setting [3]), the “Odor intensity without Nefopam, note B: scatole” value was found to be 3.5.

On to `CC1(C)CCC=C2C[C@](C)(O)CC[C@@H]21` [Ambrinol S, (2R, 4aR)-(+)-2,5,5-Trimethyl-1,2,3,4,4a,5,6,7-octahydro-naphthalen-2-ol], for which, in experiment [1] (setting [2]), the “Odor intensity without Nefopam, note A: earthy” value came to 2.5. In addition, the “Odor intensity without Nefopam, note B: vetivert” value in experiment [1] (setting [3]) turned out to be 1.5.

For `CC1(O)CC2CCC1(C)C2(C)C` (centres unmarked) [2-methylisoborneol, 1,2,7,7-Tetramethylbicyclo[2.2.1]heptan-2-ol], the “Odor intensity without Nefopam, note A: earthy” value in experiment [1] (setting [2]) turned out to be 3. The “Odor intensity without Nefopam, note B: camphoreous” value in experiment [1] (setting [3]) was 0. Also, in the experiment with human nose, the “Detection threshold (human nose)” value is given as 25 ng/L.

For `CCC1(O)C2(C)CCC(C2)C1(C)C` (centres unmarked) [2-ethylfenchol, 6-ethyl-1,5,5-trimethylbicyclo[2.2.1]heptan-6-ol], the “Odor intensity without Nefopam, note A: earthy” value in experiment [1] (setting [2]) worked out at 3. For the same molecule, the “Odor intensity without Nefopam, note B: camphoreous” value in experiment [1] (setting [3]) is listed as 3.5.

Regarding `CC1(C)CCCC2(C)CCCCC12O` (centres unmarked) [Methyl Geosmin, 4,4,8a-trimethyl-1,2,3,4,5,6,7,8-octahydronaphthalen-4a-ol], in experiment [1] (setting [2]), the “Odor intensity without Nefopam, note A: earthy” value is given as 2.5. The “Odor intensity without Nefopam, note B: α-pinene” value in experiment [1] (setting [3]) came to 1.5.

On to `CC1(O)CCC2C(=CCCC2(C)C)C1` (racemic) [Ambrinol racemic, 2,5,5-trimethyl-1,3,4,4a,6,7-hexahydronaphthalen-2-ol], for which, in experiment [1] (setting [2]), the “Odor intensity without Nefopam, note A: earthy” value was 1.5. Further, the “Odor intensity without Nefopam, note B: α-pinene” value in experiment [1] (setting [3]) is on record as 2.5.

For `CN1CCO[C@H](c2ccccc2)c2ccccc2C1` [(−)-Nefopam, (R)-5-methyl-1-phenyl-1,3,4,6-tetrahydro-2,5-benzoxazocine], in experiment [1] (setting [4]), the “Odor intensity of Geosmin with nefopam enantiomer as blocker, note A: earthy” value is 0 and the “Odor intensity of Geosmin with nefopam enantiomer as blocker, note B: camphoreous” value is given as 3.

On to `CN1CCOC(c2ccccc2)c2ccccc2C1` (racemic) [Nefopam, (RS)-5-methyl-1-phenyl-1,3,4,6-tetrahydro-2,5-benzoxazocine], for which, in experiment [1] (setting [5]), the “Odor intensity with Nefopam, 2-ethylfenchol note A: earthy” value was determined as 0 and the “Odor intensity with Nefopam, 2-ethylfenchol note B: camphoreous” value was found to be 3. Also, in experiment [1] (setting [6]), the “Odor intensity with Nefopam, 2-methylisoborneol note A: earthy” value came to 0 and the “Odor intensity with Nefopam, 2-methylisoborneol note B: camphoreous” value worked out at 2.5. In experiment [1] (setting [7]), the “Odor intensity with Nefopam, Ambrinol R note A: earthy” value is on record as 0.5 and the “Odor intensity with Nefopam, Ambrinol R note B: scatole” value is given as 3.5. In experiment [1] (setting [8]), the “Odor intensity with Nefopam, Ambrinol S note A: earthy” value turned out to be 0.5 and the “Odor intensity with Nefopam, Ambrinol S note B: vetivert” value worked out at 2. Also, in experiment [1] (setting [9]), the “Odor intensity with Nefopam, Ambrinol racemic note A: earthy” value stood at 0 and the “Odor intensity with Nefopam, Ambrinol racemic note B: α-pinene” value amounted to 2.5. In experiment [1] (setting [10]), the “Odor intensity with Nefopam, Geosmin note A: earthy” value was 1 and the “Odor intensity with Nefopam, Geosmin note B: camphoreous” value is 2.5. Further, in experiment [1] (setting [11]), the “Odor intensity with Nefopam, Huminol note A: earthy” value came out at 1 and the “Odor intensity with Nefopam, Huminol note B: camphoreous” value is on record as 2. Also, in experiment [1] (setting [12]), the “Odor intensity with Nefopam, Methyl Geosmin note A: earthy” value stood at 0.5 and the “Odor intensity with Nefopam, Methyl Geosmin note B: α-pinene” value is given as 1.5. For the same molecule, in experiment [1] (setting [13]), the “Odor intensity with Nefopam, Patchouli Oil note A: earthy” value came to 0.5 and the “Odor intensity with Nefopam, Patchouli Oil note B: α-pinene” value stood at 2.5. In experiment [1] (setting [14]), the “Intensity of the other olfactory notes associated to the different compounds in the presence of racemic nefopam” value is listed as “not significantly decreased” and the “Typical earthy olfactory note associated with the tested compounds when smelled in the presence of racemic nefopam” value is “strongly reduced”.

Take `CN1CCO[C@@H](c2ccccc2)c2ccccc2C1` [(+)-Nefopam, (S)-5-methyl-1-phenyl-1,3,4,6-tetrahydro-2,5-benzoxazocine]: in experiment [1] (setting [4]), the “Odor intensity of Geosmin with nefopam enantiomer as blocker, note A: earthy” value stood at 3 and the “Odor intensity of Geosmin with nefopam enantiomer as blocker, note B: camphoreous” value is given as 3.

Regarding `CCC1(O)C2(C)CCCC1(C)CC2` (centres unmarked) [Huminol, 8-ethyl-1,5-dimethylbicyclo[3.2.1]octan-8-ol], the “Odor intensity without Nefopam, note A: earthy” value in experiment [1] (setting [2]) was 2.5. Moreover, in experiment [1] (setting [3]), the “Odor intensity without Nefopam, note B: camphoreous” value was 2.5.

For the molecule `CC1CCCC2(C)CCCCC12O` (centres unmarked) [Geosmin, 4,8a-dimethyl-1,2,3,4,5,6,7,8-octahydronaphthalen-4a-ol], in experiment [1] (setting [15]), the “Odor intensity without blocker, note A: earthy” value is given as 3 and the “Odor intensity without blocker, note B: camphoreous” value was 3. The “Odor intensity without Nefopam, note A: earthy” value in experiment [1] (setting [2]) was determined as 3. Further, in experiment [1] (setting [3]), the “Odor intensity without Nefopam, note B: camphoreous” value was found to be 3. Besides, the “Detection threshold (human nose)” value in the experiment with human nose is given as 10 ng/L.
